Reference: US9765105B2, “Macrolide compound” (Pulike Biological Engineering, Inc., priority 2013, dated 2017)

Legend:
Test in all cases: in vitro susceptibility, MIC by mini broth dilution
Format in all cases: cell-based
[1] = tested on: Actinobacillus pleuropneumoniae CVCC262; conditions: strain CVCC262
How it was run: (§1)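 NCCLS-based mini broth dilution; inoculum from twice-streaked 35° C/20 h cultures, 1:200 in broth; compound two-fold series in DMSO, 11 steps, duplicates.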

[2] = tested on: Pasteurella multocida CVCC399; conditions: strain CVCC399
How it was run: as §1

[3] = tested on: Streptococcus equines CVCC556; conditions: strain CVCC556
How it was run: as §1

[4] = tested on: Haemophilus parasuis
How it was run: as §1

[5] = tested on: Staphylococcus aureus CVCC26003; conditions: strain CVCC26003
How it was run: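 S. aureus CVCC26003 was revived and subcultured twice, 20 h each at 35° C, on solid medium, then diluted 1:200 in CAMHB liquid medium. Compounds received an 11-step two-fold DMSO dilution in parallel duplicate rows. MIC was read by mini broth dilution per NCCLS guidance.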

Structure (SMILES) | MIC values, Actinobacillus pleuropneumoniae CVCC262 [1] [ug/mi] | MIC values, Pasteurella multocida CVCC399 [2] [ug/mi] | MIC values, Streptococcus equines CVCC556 [3] | MIC values, Haemophilus parasuis [4] [ug/mi] | MIC values, Staphylococcus aureus CVCC26003 [5] [ug/mi]
CCC(CO)NC[C@]1(O)[C@H](C)O[C@@H](O[C@H]2[C@H](C)[C@@H](O[C@@H]3O[C@H](C)C[C@H](N(C)C)[C@H]3O)[C@](C)(O)C[C@@H](C)NC[C@H](C)[C@@H](O)[C@](C)(O)[C@@H](CC)OC(=O)[C@@H]2C)C[C@@]1(C)OC (stereo partly drawn) [syzx-51, (2R,3S,4R,5S,8R,10R,11R,12S,13S,14R)-13-[(2,6-dideoxy-3-C-methyl-3-O-methyl-4-C-[(1-hydroxymethyl-propylamino)-methyl]-α-L-ribopyranosyl)oxy]-2-ethyl-3,4,10-trihydroxy-3,5,8,10,12,14-hexamethyl-11-[[3,4,6-trideoxy-3-(dimethylamino)-β-D-xylo-hexopyranosy]oxy]-1-oxa-7-azacyclopentadecan-15-one] | 1 | 0.5 | 1 ug/mi | 2 | 0.5
CCCN1C[C@H](C)[C@@H](O)[C@](C)(O)[C@@H](CC)OC(=O)[C@H](C)[C@@H](O[C@H]2C[C@@](C)(OC)[C@](O)(CNc3cccc(Cl)c3)[C@H](C)O2)[C@H](C)[C@@H](O[C@@H]2O[C@H](C)C[C@H](N(C)C)[C@H]2O)[C@](C)(O)C[C@H]1C [syzx-113] | 0.25 | 1 | 0.25 ug/mi | 0.25 | 0.25
CCC1OC(=O)C(C)C(OC2CC(C)(OC)C(O)(CNc3ccccc3)C(C)O2)C(C)C(OC2OC(C)CC(N(C)C)C2O)C(C)(O)CC(C)NCC(C)C(O)C1(C)O [syzx-4, (2R,3S,4R,5S,8R,10R,11R,12S,13S,14R)-13-[(2,6-dideoxy-3-C-methyl-3-O-methyl-4-C-[(phenylamino)methyl]-α-L-ribopyranosyl)oxy]-2-ethyl-3,4,10-trihydroxy-3,5,8,10,12,14-hexamethyl-11-[[3,4,6-trideoxy-3-(dimethylamino)-β-D-xylo-hexopyranosy]oxy]-1-oxa-7-azacyclopentadecan-15-one] | 32 | 1 | ≦0.25 ug/mi | 0.5 | 1
CCCN1C[C@H](C)[C@@H](O)[C@](C)(O)[C@@H](CC)OC(=O)[C@H](C)[C@@H](O[C@H]2C[C@@](C)(OC)[C@](O)(CNc3ccccc3)[C@H](C)O2)[C@H](C)[C@@H](O[C@@H]2O[C@H](C)C[C@H](N(C)C)[C@H]2O)[C@](C)(O)C[C@H]1C [syzx-104] | 0.25 | 1 | 0.25 ug/mi | 0.25 | 0.25
CC[C@H]1OC(=O)[C@H](C)[C@@H](O[C@H]2C[C@@](C)(OC)[C@](O)(CNCCCCl)[C@H](C)O2)[C@H](C)[C@@H](O[C@@H]2O[C@H](C)C[C@H](N(C)C)[C@H]2O)[C@](C)(O)C[C@@H](C)NC[C@H](C)[C@@H](O)[C@]1(C)O [syzx-75, (2R,3S,4R,5S,8R,10R,11R,12S,13S,14R)-13-[(2,6-dideoxy-3-C-methyl-3-O-methyl-4-C-[(3-chloropropyl-amino)-methyl]-α-L-ribopyranosyl)oxy]-2-ethyl-3,4,10-trihydroxy-3,5,8,10,12,14-hexamethyl-11-[[3,4,6-trideoxy-3-(dimethylamino)-β-D-xylo-hexopyranosy]oxy]-1-oxa-7-azacyclopentadecan-15-one] | 64 | 8 | 4 ug/mi | 4 | 4
CCCN1C[C@H](C)[C@@H](O)[C@](C)(O)[C@@H](CC)OC(=O)[C@H](C)[C@@H](O[C@H]2C[C@@](C)(OC)[C@](O)(CNCc3ccc(F)cc3)[C@H](C)O2)[C@H](C)[C@@H](O[C@@H]2O[C@H](C)C[C@H](N(C)C)[C@H]2O)[C@](C)(O)C[C@H]1C [syzx-108] | 0.25 | 1 | 0.25 ug/mi | 0.25 | 0.25
CCC1OC(=O)C(C)C(OC2CC(C)(OC)C(O)(CNCc3ccc(C)o3)C(C)O2)C(C)C(OC2OC(C)CC(N(C)C)C2O)C(C)(O)CC(C)NCC(C)C(O)C1(C)O [syzx-78, (2R,3S,4R,5S,8R,10R,11R,12S,13S,14R)-13-[(2,6-dideoxy-3-C-methyl-3-O-methyl-4-C-[(5-methylfurfurylamino)-methyl]-α-L-ribopyranosyl)oxy]-2-ethyl-3,4,10-trihydroxy-3,5,8,10,12,14-hexamethyl-11-[[3,4,6-trideoxy-3-(dimethylamino)-β-D-xylo-hexopyranosy]oxy]-1-oxa-7-azacyclopentadecan-15-one] | 2 | 0.5 | 0.25 ug/mi | 0.25 | 0.25
CCCN1C[C@H](C)[C@@H](O)[C@](C)(O)[C@@H](CC)OC(=O)[C@H](C)[C@@H](O[C@H]2C[C@@](C)(OC)[C@](O)(CNCCOCCO)[C@H](C)O2)[C@H](C)[C@@H](O[C@@H]2O[C@H](C)C[C@H](N(C)C)[C@H]2O)[C@](C)(O)C[C@H]1C [syzx-143] | 0.25 | 1 | 0.25 ug/mi | 0.25 | 0.25

The remaining lines, values ahead:

MIC values, Actinobacillus pleuropneumoniae CVCC262 [1] [ug/mi] | MIC values, Pasteurella multocida CVCC399 [2] [ug/mi] | MIC values, Streptococcus equines CVCC556 [3] | MIC values, Haemophilus parasuis [4] [ug/mi] | MIC values, Staphylococcus aureus CVCC26003 [5] [ug/mi] | Structure (SMILES)
0.25 | 0.5 | 0.25 ug/mi | 0.25 | 0.25 | CCCN1C[C@H](C)[C@@H](O)[C@](C)(O)[C@@H](CC)OC(=O)[C@H](C)[C@@H](O[C@H]2C[C@@](C)(OC)[C@](O)(CNCc3cc(F)cc(F)c3)[C@H](C)O2)[C@H](C)[C@@H](O[C@@H]2O[C@H](C)C[C@H](N(C)C)[C@H]2O)[C@](C)(O)C[C@H]1C [syzx-155]
0.25 | 0.5 | 0.25 ug/mi | 0.25 | 0.25 | CCCN1C[C@H](C)[C@@H](O)[C@](C)(O)[C@@H](CC)OC(=O)[C@H](C)[C@@H](O[C@H]2C[C@@](C)(OC)[C@](O)(CNCCCN3CCOCC3)[C@H](C)O2)[C@H](C)[C@@H](O[C@@H]2O[C@H](C)C[C@H](N(C)C)[C@H]2O)[C@](C)(O)C[C@H]1C [syzx-169]
4 | 4 | 0.5 ug/mi | 4 | 4 | CCCN1C[C@H](C)[C@@H](O)[C@](C)(O)[C@@H](CC)OC(=O)[C@H](C)[C@@H](O[C@H]2C[C@@](C)(OC)[C@](O)(CNCc3ccccc3F)[C@H](C)O2)[C@H](C)[C@@H](O[C@@H]2O[C@H](C)C[C@H](N(C)C)[C@H]2O)[C@](C)(O)C[C@H]1C [syzx-192]
